Results from the Kinase Knowledgebase extract (Sharma et al. 2016).

These molecules were tested against EGFR (UniProt P00533).
Sequence of EGFR (P00533 whole entry, looked up): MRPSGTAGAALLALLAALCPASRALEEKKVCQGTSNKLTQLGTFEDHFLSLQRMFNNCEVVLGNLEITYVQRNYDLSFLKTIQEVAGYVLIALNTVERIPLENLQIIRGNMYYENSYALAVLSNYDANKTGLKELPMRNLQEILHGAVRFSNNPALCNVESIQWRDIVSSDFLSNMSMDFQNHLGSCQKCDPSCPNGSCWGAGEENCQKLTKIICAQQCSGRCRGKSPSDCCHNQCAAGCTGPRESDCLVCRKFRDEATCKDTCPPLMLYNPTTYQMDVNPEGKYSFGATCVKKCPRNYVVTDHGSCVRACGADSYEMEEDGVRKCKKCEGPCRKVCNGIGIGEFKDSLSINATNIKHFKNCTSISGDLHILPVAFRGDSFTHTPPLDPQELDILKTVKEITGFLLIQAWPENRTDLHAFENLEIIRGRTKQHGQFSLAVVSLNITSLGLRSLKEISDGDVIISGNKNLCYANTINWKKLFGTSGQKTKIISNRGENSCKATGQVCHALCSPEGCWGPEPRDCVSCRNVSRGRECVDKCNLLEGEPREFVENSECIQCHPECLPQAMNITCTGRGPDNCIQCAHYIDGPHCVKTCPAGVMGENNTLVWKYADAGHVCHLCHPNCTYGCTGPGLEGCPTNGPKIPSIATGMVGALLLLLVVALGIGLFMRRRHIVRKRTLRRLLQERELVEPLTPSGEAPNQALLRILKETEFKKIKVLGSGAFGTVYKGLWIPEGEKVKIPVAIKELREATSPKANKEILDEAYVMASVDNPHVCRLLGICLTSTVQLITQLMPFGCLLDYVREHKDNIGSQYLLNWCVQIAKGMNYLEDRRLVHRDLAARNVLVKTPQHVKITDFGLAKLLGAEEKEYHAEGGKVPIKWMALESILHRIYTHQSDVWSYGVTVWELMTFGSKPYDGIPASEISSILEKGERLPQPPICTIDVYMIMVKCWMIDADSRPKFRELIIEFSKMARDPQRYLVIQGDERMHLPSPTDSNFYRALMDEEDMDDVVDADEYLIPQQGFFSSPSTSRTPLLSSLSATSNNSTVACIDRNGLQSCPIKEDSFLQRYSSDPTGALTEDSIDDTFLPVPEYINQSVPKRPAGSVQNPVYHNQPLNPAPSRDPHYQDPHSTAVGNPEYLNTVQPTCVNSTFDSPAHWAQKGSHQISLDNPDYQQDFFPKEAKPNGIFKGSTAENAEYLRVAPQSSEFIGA
Molecule `CN(CC(=O)O)c1cc2ncnc(Nc3cccc(Br)c3)c2cn1` has an IC50 of 16.2 nM.
With `OCCN(CCO)c1cc2ncnc(Nc3cccc(Br)c3)c2cn1` the IC50 was 12 nM.
For `CN(C)CCCCNc1cc2ncnc(Nc3cccc(Br)c3)c2cn1`, the IC50 was 7.4 nM.
Molecule `Brc1cccc(Nc2ncnc3cnc(NCCc4c[nH]cn4)nc23)c1` has an IC50 of 0.25 nM.
For `Cc1cccc(Nc2ncnc3cc(NCCCN4CCN(C)CC4)ncc23)c1`, the IC50 was 5.6 nM.
`CN(CCO)c1cc2ncnc(Nc3cccc(Br)c3)c2cn1` gave an IC50 of 2.6 nM.
Work on `CNc1ccc2ncnc(Nc3cccc(Br)c3)c2n1` yielded an IC50 of 3.2 nM.
For `NNc1cc2ncnc(Nc3cccc(Br)c3)c2cn1`, the IC50 was 7.2 nM.
Work on `COc1cc2ncnc(Nc3cccc(Br)c3)c2cn1` yielded an IC50 of 39.8 nM.
Molecule `O=S(=O)(O)CCNc1cc2ncnc(Nc3cccc(Br)c3)c2cn1` has an IC50 of 1.4 nM.
In the case of `Cc1cccc(Nc2ncnc3cc(NCCCCN(C)C)ncc23)c1`, the IC50 is reported as 5.5 nM.
Work on `Nc1cc2ncnc(Nc3ccc(Br)cc3)c2cn1` yielded an IC50 of 25.7 nM.
Molecule `OCCN(CCO)CCCNc1cc2ncnc(Nc3cccc(Br)c3)c2cn1` has an IC50 of 1.2 nM.
With `Fc1ccc2c(Nc3cccc(Br)c3)ncnc2n1` the IC50 was 692 nM.
With `O=C(O)CCCNc1cc2ncnc(Nc3cccc(Br)c3)c2cn1` the IC50 was 0.28 nM.
`CN(C)CCCCCNc1cc2ncnc(Nc3cccc(Br)c3)c2cn1` showed an IC50 of 8.5 nM.
For `Cc1cccc(Nc2ncnc3cc(NCCCn4ccnc4)ncc23)c1`, the IC50 was 3.5 nM.
Molecule `Brc1cccc(Nc2ncnc3cc(NCCCN4CCOCC4)ncc23)c1` has an IC50 of 1.9 nM.
Molecule `O=C(O)CNc1cc2ncnc(Nc3cccc(Br)c3)c2cn1` has an IC50 of 1.5 nM.
For `CN(C)CCNc1cc2ncnc(Nc3cccc(Br)c3)c2cn1`, the IC50 was 45.7 nM.
Work on `Brc1cccc(Nc2ncnc3cc(NCCCn4ccnc4)ncc23)c1` yielded an IC50 of 0.512 nM.
`Brc1cccc(Nc2ncnc3cnc(NCCN4CCOCC4)nc23)c1` was tested, and the IC50 was 0.813 nM.
`CN1CCN(CCCNc2cc3ncnc(Nc4cccc(Br)c4)c3cn2)CC1` was tested, and the IC50 was 5 nM.
Molecule `OCCNc1cc2ncnc(Nc3cccc(Br)c3)c2cn1` has an IC50 of 0.25 nM.
With `CN(C)CCN(C)c1cc2ncnc(Nc3cccc(Br)c3)c2cn1` the IC50 was 40 nM.
`CC(=O)Nc1cc2ncnc(Nc3cccc(Br)c3)c2cn1` showed an IC50 of 29.5 nM.
For `Brc1cccc(Nc2ncnc3cc(NCCCCN4CCOCC4)ncc23)c1`, the IC50 was 5.5 nM.
With `COc1cccc(Nc2ncnc3cc(N)ncc23)c1` the IC50 was 132 nM.
`OCC(O)CNc1cc2ncnc(Nc3cccc(Br)c3)c2cn1` (stereo unspecified) showed an IC50 of 0.93 nM.
For `CN(CC(O)CO)c1cc2ncnc(Nc3cccc(Br)c3)c2cn1` (stereo unspecified), the IC50 was 3.2 nM.
For `OCN(CO)c1cc2ncnc(Nc3cccc(Br)c3)c2cn1`, the IC50 was 14.1 nM.
`Brc1cccc(Nc2ncnc3cc(NCCc4c[nH]cn4)ncc23)c1` was tested, and the IC50 was 0.912 nM.
Molecule `Brc1cccc(Nc2ncnc3cc(NCCN4CCOCC4)ncc23)c1` has an IC50 of 3.2 nM.
`O=C(O)CCNc1cc2ncnc(Nc3cccc(Br)c3)c2cn1` was tested, and the IC50 was 0.62 nM.
`CN(C)CCCNc1cc2ncnc(Nc3cccc(Br)c3)c2cn1` gave an IC50 of 8.9 nM.
For `OCCN(CCO)CCNc1cc2ncnc(Nc3cccc(Br)c3)c2cn1`, the IC50 was 9.3 nM.
